The nature of the assay: Evaluation of Antiviral Activity of Compounds Against Human Coronavirus (HCov) 229E: Compounds were assayed using standard methods against multiple coronaviral strains, including HCoV 229E and OC43 strains. […] The antiviral activity of compounds was calculated based on the protection of the virus-induced CPE at each concentration normalized by the virus control.

In ChEMBL document CHEMBL5729382, “Inhibitors of cysteine proteases and methods of use thereof” (2022) one finds IC50 data, which are given here for two compounds.

As for `N#CC1(NC(=O)[C@@H](CC2CC2)NC(=O)OCc2ccccc2)C[C@H]2CC[C@@H]1[C@H]1C(=O)NC(=O)[C@@H]21` (single isomer, unassigned; isomer 1), the IC50 (commonly the concentration at which inhibition is half-maximal) is above 30 µM.

Regarding `COc1cccc2[nH]c(C(=O)N[C@H](CC3CC3)C(=O)N[C@@]3(C#N)CC4CCC3[C@H]3C(=O)NC(=O)[C@@H]43)cc12` (single isomer, unassigned; isomer 1), the IC50 was above 30 µM.
